Laboratory results: patent US11629136B1, “Substituted pyridine derivatives as SARM1 inhibitors” (Nura Bio, Inc., priority 2021, dated 2023)

Biological target: human SARM1(50-724) (Homo sapiens (Human), UniProt Q6SZW1)
Test: SARM1 NAD hydrolase biological assay (HPLC readout of NAD and NAM peak areas)
Assay type: biochemical
Conditions: 40 nM human SARM1(50-724), 0.3 mM NMN, 20 μM NAD, 60 minutes at room temperature; class symbols; read-out: Average IC50
Description: The reaction was incubated at room temperature for 60 minutes and quenched with 20 μL of 0.4% formic acid. […] Total run time for each sample was 4 minutes. The run was isocratic with 1.5% methanol in 40 mM ammonium acetate pH 6.0. Samples were run at a flow rate of 0.8 ml/min at 55° C. Peak areas of NAD and NAM were determined using OpenLAB CDS (Chem Station edition) software. For dose-response, the compound was diluted serially 1:3 in DMSO and added to the reaction starting at a final compound concentration of 100 μM in 1% DMSO.

human SARM1(50-724), sequence (Q6SZW1 50-724): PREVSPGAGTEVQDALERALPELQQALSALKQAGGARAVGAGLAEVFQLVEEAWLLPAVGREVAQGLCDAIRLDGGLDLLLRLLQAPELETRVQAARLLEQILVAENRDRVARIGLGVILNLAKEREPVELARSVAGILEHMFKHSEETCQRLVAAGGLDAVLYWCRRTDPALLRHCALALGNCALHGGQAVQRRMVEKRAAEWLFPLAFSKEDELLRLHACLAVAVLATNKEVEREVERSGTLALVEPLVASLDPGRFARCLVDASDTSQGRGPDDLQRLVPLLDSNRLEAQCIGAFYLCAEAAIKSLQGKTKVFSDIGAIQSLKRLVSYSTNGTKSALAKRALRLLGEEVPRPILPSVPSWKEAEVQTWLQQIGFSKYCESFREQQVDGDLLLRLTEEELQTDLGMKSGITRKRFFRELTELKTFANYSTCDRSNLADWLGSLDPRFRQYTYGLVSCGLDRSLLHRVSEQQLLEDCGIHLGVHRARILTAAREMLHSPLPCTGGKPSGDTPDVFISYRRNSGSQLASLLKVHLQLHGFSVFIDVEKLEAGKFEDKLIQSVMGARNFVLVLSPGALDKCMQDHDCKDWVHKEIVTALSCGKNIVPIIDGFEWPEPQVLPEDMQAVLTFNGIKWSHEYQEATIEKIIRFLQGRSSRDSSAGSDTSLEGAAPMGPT

Row | IC50 [µM] | Structure (SMILES)
1 | < 1 | Fc1cnccc1Cc1c[nH]c(CC(F)(F)F)n1 [Example 36, 3-Fluoro-4-((2-(2,2,2-trifluoroethyl)-1H-imidazol-4-yl)methyl)pyridine]
2 | 1 to 10 | OC(c1nc(Cc2ccncc2)c[nH]1)(C(F)(F)F)C(F)(F)F [Example 39, 1,1,1,3,3,3-Hexafluoro-2-(4-(pyridin-4-ylmethyl)-1H-imidazol-2-yl)propan-2-ol]
